Reference: ChEMBL document CHEMBL1152371, “Effect of varying chain length between P(1) and P(1') position of tripeptidomimics on activity of angiotensin-converting enzyme inhibitors” (Bioorg Med Chem Lett, 2009)

Target: T1, Angiotensin-converting enzyme (Oryctolagus cuniculus) (UniProt P12822)
T1 sequence (whole entry): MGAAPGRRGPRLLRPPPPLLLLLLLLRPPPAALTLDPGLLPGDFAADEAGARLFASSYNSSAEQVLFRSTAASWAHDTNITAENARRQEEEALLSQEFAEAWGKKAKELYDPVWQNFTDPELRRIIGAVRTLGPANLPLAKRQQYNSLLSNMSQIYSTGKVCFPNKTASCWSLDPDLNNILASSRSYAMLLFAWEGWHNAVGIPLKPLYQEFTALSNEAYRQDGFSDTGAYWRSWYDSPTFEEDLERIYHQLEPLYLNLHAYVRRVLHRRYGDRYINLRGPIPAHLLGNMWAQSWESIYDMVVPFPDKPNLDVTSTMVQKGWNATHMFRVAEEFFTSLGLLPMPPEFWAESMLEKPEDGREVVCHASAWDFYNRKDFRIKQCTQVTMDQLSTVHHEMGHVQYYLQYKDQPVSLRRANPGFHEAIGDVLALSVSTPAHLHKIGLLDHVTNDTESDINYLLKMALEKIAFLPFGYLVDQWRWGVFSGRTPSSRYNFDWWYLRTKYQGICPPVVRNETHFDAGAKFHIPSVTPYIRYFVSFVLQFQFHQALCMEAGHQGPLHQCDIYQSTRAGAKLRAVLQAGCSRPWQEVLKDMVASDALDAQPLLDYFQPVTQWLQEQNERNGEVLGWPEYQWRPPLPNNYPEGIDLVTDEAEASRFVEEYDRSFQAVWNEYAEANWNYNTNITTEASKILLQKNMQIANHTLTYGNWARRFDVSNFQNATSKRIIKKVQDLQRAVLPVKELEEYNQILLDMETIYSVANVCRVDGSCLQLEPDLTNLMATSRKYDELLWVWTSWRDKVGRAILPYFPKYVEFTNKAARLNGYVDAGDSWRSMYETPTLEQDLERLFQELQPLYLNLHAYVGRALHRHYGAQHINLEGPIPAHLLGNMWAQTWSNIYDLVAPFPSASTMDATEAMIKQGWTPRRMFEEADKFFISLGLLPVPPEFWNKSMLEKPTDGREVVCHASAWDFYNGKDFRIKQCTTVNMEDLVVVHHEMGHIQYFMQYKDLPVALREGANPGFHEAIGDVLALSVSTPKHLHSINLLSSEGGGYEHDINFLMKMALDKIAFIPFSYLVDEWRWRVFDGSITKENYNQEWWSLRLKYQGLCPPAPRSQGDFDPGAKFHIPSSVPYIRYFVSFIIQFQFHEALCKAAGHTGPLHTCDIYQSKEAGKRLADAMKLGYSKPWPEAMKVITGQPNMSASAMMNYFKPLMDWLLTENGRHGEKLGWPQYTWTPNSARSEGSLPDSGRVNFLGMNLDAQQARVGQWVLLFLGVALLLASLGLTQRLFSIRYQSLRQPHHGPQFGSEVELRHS
Test: Inhibition of rabbit lung ACE activity relative to control
Design: concentration or dose not given beside the values
Conditions: concentration not given here

Row | inhibition | Structure (SMILES)
1 | 23.7% | NCCC[C@H](NC(=O)c1ccsc1)C(=O)N1CCC[C@H]1C(=O)O
2 | 33.8% | NCCC[C@H](NC(=O)CCCc1c[nH]c2ccccc12)C(=O)N1CCC[C@H]1C(=O)O
3 | 72.7% | NCCC[C@H](NC(=O)CCc1ccsc1)C(=O)N1CCC[C@H]1C(=O)O
4 | 38.5% | NCCC[C@H](NC(=O)Cc1c[nH]c2ccccc12)C(=O)N1CCC[C@H]1C(=O)O
5 | 27.7% | NCCC[C@H](NC(=O)c1c[nH]c2ccccc12)C(=O)N1CCC[C@H]1C(=O)O
6 | 35.6% | NCCC[C@H](NC(=O)Cc1ccsc1)C(=O)N1CCC[C@H]1C(=O)O
7 | 59.7% | NCCC[C@H](NC(=O)CCc1c[nH]c2ccccc12)C(=O)N1CCC[C@H]1C(=O)O
8 | 37.2% | NCCC[C@H](NC(=O)CCCc1ccsc1)C(=O)N1CCC[C@H]1C(=O)O
